Assay results as given in US20020086342A1, “Assays for identifying phosphatase inhibitors” (priority 2000, published 2002).

What was measured:
[1] = biological target: T1, GST-PTPbr7 (Mus musculus, UniProt Q62132); assay: PTPbr7 inhibition assay: peptide substrate (malachite green readout); format: biochemical; settings: sodium orthovanadate 1 mM; peptide ENDpYINASL 0.1 mM; GST-PTPbr7 4 μg; 30 min, 25° C., pH 7.4; in absence of inhibitor 0.65
T1 construct: purchased PanVera
T1 sequence (Q62132 24-656): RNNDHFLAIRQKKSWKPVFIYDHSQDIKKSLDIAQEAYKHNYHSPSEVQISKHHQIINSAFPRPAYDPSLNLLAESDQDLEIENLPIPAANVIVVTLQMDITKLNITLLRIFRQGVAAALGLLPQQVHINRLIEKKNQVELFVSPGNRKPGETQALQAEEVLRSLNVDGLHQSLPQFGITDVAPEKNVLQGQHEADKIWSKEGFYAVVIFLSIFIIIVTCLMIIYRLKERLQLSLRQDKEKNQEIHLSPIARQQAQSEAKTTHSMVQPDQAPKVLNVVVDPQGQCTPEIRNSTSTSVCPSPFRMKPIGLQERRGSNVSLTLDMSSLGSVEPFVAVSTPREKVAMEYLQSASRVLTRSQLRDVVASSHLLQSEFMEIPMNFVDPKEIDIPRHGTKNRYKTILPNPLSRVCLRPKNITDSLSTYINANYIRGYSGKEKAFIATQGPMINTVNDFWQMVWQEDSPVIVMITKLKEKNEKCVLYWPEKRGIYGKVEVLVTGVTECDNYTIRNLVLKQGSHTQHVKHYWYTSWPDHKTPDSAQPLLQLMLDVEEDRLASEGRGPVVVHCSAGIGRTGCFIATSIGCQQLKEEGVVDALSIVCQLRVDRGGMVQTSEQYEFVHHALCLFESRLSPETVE
Experimental: The ability of a test agent (positive control, non-specific tyrosine phosphatase inhibitor, sodium orthovanadate) to inhibit the dephosphorylation of a peptide having a phosphotyrosine residue by a PTPbr7 fusion protein was determined as follows.GST-PTPbr7 (4 μg, PanVera) is mixed together with the peptide [ENDpYINASL] (0.1 mM, American Peptide Company), with and without sodium orthovanadate (1 mM, SIGMA®-Aldrich), in a total volume of 25 μL assay buffer (50 mM Tris, 0.15 M NaCl, 5 mM DTT, 0.1% BSA), pH 7.4, at 25° C., in separate wells of a ½ volume 96-well microtiter plate (COSTAR #3690 plate), for 30 min.
The reactions were then terminated by the addition of 100 μL of MG/AM stop solution. MG (Malachite Green) solution was obtained from SIGMA®-Aldrich cat no. M9636, and can be prepared by dissolving 500 mg/L in dH2O, filtering the solution with a Whatman #1 filter, and storing at 4° C. AM (Ammonium Molybdate) solution was obtained from SIGMA®Aldrich cat. no. A7302, 42 g/L in 4 M HCl (345 mL concentration HCl/L, stored at 4° C.). MG/AM mixture was prepared by mixing one part AM to 3 parts MG, stirring for at least 30 min, at room temperature, filtering with a Whatman #5, and storing at 4° C. […]
The plate is then incubated at room temperature for 15 min and, after removing any bubbles, the optical density of the solution in each well was read at A620 (620 nm, spectrophotometer). […]

[2] = biological target: T1, GST-PTPbr7; assay: PTPbr7 inhibition assay: fluorogenic substrate (O-methyl fluorophosphate); format: biochemical; settings: sodium orthovanadate 1 mM; O-methyl fluorophosphate 10 μM; GST-PTPbr7 4 μg/mL; 30 min, room temperature; in absence of inhibitor 4100.00
Experimental: The ability of a test agent (positive control, non-specific tyrosine phosphatase inhibitor, sodium orthovanadate) to inhibit the dephosphorylation of a fluorogenic substrate by a PTPbr7 fusion protein was determined as follows.
80 μL of the diluted substrate (final concentration of 10 μM) was then added to each of two wells of a 96-well microtiter plate (COSTAR #3690 plate), followed by, in one of the wells, sodium orthovanadate (1 mM, final concentration), and in both wells, 20 μL of GST-PTPbr7 (4 μg, PanVera) to give a final enzyme concentration in each of the assays of 4 μg/mL. The reactions were incubated at room temperature for 30 min. For each reaction, the fluorescent emission was measured by excitation at 485 nm and emission at 535 nm using a Victor II plate reader (Packard). The presence of the test agent (sodium orthovanadate) in the reaction caused a decrease in the fluorescent signal (1250.00) compared to the reaction in the absence of inhibitor (4100.00).

[3] = tested on: PTPbr7 mRNA in PC12 cells; settings: PC12 cells following treatment with NGF; Sharma and Lombroso 1995; cited from earlier work
[4] = tested on: PC12 cells; assay: NGF-induced neurite outgrowth in PC12 cell lines transfected with full length mouse PTPbr7; format: cell-based, rat; settings: 50 ng/mL NGF for 6 days
From the text: Total mouse brain RNA (Strategene) was subjected to RT-PCR cloning using […] as the 5′ primer, and […] as the 3′ primer (CPMB, see, in particular, Chapter 15, The Polymerase Chain Reaction, Supplement 30). The cDNA clone (full length mouse PTPbr7) was introduced into PC12 cells by transfection using Lipofectamine™ Reagent (Life Technologies) and substantially following the instructional sheet (for adherent cells, see also, CPMB, in particular, Chapter 9, Introduction of DNA into Mammalian Cells, Supplement 39) which specifies the concentration of DNA and reagent, cell density, transfection times, and transfection protocol. Stable cell lines were selected in (200 μg/mL) G418 (Life Technologies), as also provided by the instructional sheet, and the overexpressing cell lines were identified by Northern Blot analysis (see CPMB, in particular, Chapter 4, Preparation and Analysis of RNA, Chapter 4.9.1, Analysis of RNA by Northern Blot Hybridization, Supplement 26). The transfected cell lines were then treated with 50 ng/mL NGF (Life Technologies) for 6 days. The degree of neurite outgrowth was quantitated using photomicrographs where the total number of cells in the field was counted, then the cells were recounted that had one or more neurites that were greater than or equal to one cell body diameter in length, and a “% neurites” was determined.

Compound | optical density 620 nm [1] | fluorescent signal (excitation 485 nm, emission 535 nm) [2] | upregulation of PTPbr7 mRNA [3] [fold] | % Neurite on Day 6 (+NGF) ([4]; cell line br7-9, PTPbr7 expression none) [%] | % Neurite on Day 6 (+NGF) ([4]; cell line br7-11, PTPbr7 expression high) [%] | % Neurite on Day 6 (+NGF) ([4]; cell line br7-12, PTPbr7 expression high) [%] | % Neurite on Day 6 (+NGF) ([4]; cell line br7-13, PTPbr7 expression high) [%]
[Na+].[Na+].[Na+].[O]=[V]([O-])([O-])[O-] [sodium orthovanadate] | 0.10 | 1250.00 |  |  |  |  | 
NGF: Nerve growth factor, a neurotrophic factor which mediates the survival, differentiation and maintenance of specific populations of neurons |  |  | 8 | 52 | 26 | 24 | 32
